A short description of data set [1]: Cytotoxicity against CD70 deficient human L540cy cells expressing CD30 after 96 hrs. The class given is functional, cell-based.
Data set [2] can be described thus: Chemical stability of the compound. The data set is classed as physicochemical.
The subject of the next data set is CAKI-1. Put plainly: Cytotoxicity against CD30 deficient human Caki1 cells expressing CD70 after 96 hrs. The class given is functional, cell-based. The note with it: CAKI-1, 96 h.

The structures appear in SMILES notation. pIC50: −log10 of the molar value.

For orientation: pIC50 means the negative decadic logarithm of the IC50, by convention in mol/L. Low values mean a large IC50, high ones a small IC50. As for `C=C(C)CC(OC)[C@H](O)C(=O)N[C@@H](OC)[C@@H]1C[C@@H](O)C(C)(C)[C@@H](C[C@H](O)[C@@H](C)[C@H]2Cc3c(C)c(O)cc(O)c3C(=O)O2)O1` (stereo partly drawn) [IRCINIASTATIN A], the pIC50 in data set [1] is 9.15; with CAKI-1, 9.52. Further, the Stability result in data set [2] is “Stable”.

These data come from ChEMBL document CHEMBL2040788, “Expanded Utility of the β-Glucuronide Linker: ADCs That Deliver Phenolic Cytotoxic Agents” (ACS Med Chem Lett, 2010).
